# Calls of active or inactive are those of the source. The rule behind the calls is not given here.
# How the values were obtained:
# [1] = Inhibition of NF-kappaB in LPS-induced mouse RAW264.7 cells assessed as inhibition of NO production after 24 hrs; assay type: cell-based
# RAW264.7 [2] = test: Cytotoxicity against mouse RAW264.7 cells by MTT colorimetric assay in presence of LPS; assay type: functional; conditions: read-out: ED50 (the source's name)
# Jurkat = test: Induction of apoptosis in human Jurkat cells; assay type: functional, cell-based
# RAW264.7 [3] = test: Inhibition of NF-kappaB in LPS-induced mouse RAW264.7 cells assessed as inhibition of iNOS expression after 24 hrs; assay type: cell-based
# T-cell = test: Induction of apoptosis in T cell leukemia; assay type: functional, cell-based
# [4] = Mus musculus, RAW264.7, 24 h, read-out: IC50
SMILES,"IC50 [1, 4]",EC50 (RAW264.7 [2]),IC50 ([1]; raw264.7),Activity (Jurkat),Activity (RAW264.7 [3]),Activity (T-cell)
CCCCCCCCCCCCNC(=O)CC1CC(=O)NC(=O)C1,> 30 mg/L,25 mg/L,–,–,–,–
CCCCCCCCCCCCOC(=O)CC1CC(=O)NC(=O)C1,> 30 mg/L,> 30 mg/L,–,–,–,–
CCCCCCNC(=O)CC1CC(=O)NC(=O)C1,> 30 mg/L,> 30 mg/L,–,–,–,–
CCCCCCOC(=O)CC1CC(=O)NC(=O)C1,> 30 mg/L,> 30 mg/L,–,–,–,–
O=C1CC(CC(=O)NC2CCCCC2)CC(=O)N1,> 30 mg/L,> 30 mg/L,–,–,–,–
O=C(O)CC1CC(=O)NC(=O)C1,> 30 mg/L,> 30 mg/L,–,–,–,–
CCCCCCSC(=O)CC1CC(=O)NC(=O)C1,15 mg/L,> 30 mg/L,–,–,–,–
CC(C)(C)OC(=O)/C=C/CC1CC(=O)NC(=O)C1,30 mg/L,> 30 mg/L,–,–,–,–
O=C1CC(C/C=C/C(=O)c2cccc(OCc3ccccc3)c2)CC(=O)N1,3 mg/L,8 mg/L,–,–,–,–
CCCCCCCCCCCCSC(=O)CC1CC(=O)NC(=O)C1,1 mg/L,15 mg/L,–,–,–,–
CCCCCCCCCCCCSC(=O)CC1CC(=O)N(C)C(=O)C1,2 mg/L,8 mg/L,–,–,–,–
C/C=C\C(C)=C\[C@@H](C)C(=O)C[C@H](O)CC1CC(=O)NC(=O)C1,–,–,Active,Active,Active,Active
CCCCCCCCCCCCSC(=O)CC1CC(=O)N(CC)C(=O)C1,2 mg/L,20 mg/L,–,–,–,–
